# Test results: patent publication US12685312B2, “Sulfonamide apyrase inhibitors” (Texas Crop Science, Inc., priority 2022, dated 2026)
# Tested on: apyrase
# Assay: Screen for apyrase inhibitors (Method 1, in vitro phosphate-release absorbance assay)
# Type: biochemical
# Conditions: inhibitor conc at 1 mM stock, 1 hr room temperature, absorbance 630 nm; rounded average of two assay results
# How it was run: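 Phosphate-release colorimetric assay (Windsor method) in 60 mM Hepes, 3 mM MgCl2, 3 mM CaCl2, 3 mM ATP, pH 6.5, with compound or DMSO control added. Released phosphate developed with ammonium molybdate and ascorbic acid/TCA, then stopped with citrate/acetic acid.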
row,Compound,% Inhibition of Apyrase
1,"CCCNC(=O)CN(CCC)C(=O)c1cccc(S(=O)(=O)Nc2ccc(Br)cc2)c1 [I-287, 3-(N-(4-bromophenyl)sulfamoyl)-N-(2-oxo-2-(propylamino)ethyl)-N-propylbenzamide]",11%
2,"N#Cc1cccc(NC(=O)c2cccc(NS(=O)(=O)c3ccc(Cl)c(Cl)c3)c2)c1 [I-316, N-(3-cyanophenyl)-3-((3,4-dichlorophenyl)sulfonamido)benzamide]",69%
3,"Cc1ccc(F)cc1S(=O)(=O)Nc1cccc(C(=O)Nc2cccc(C#N)c2)c1 [I-318, N-(3-cyanophenyl)-3-((5-fluoro-2-methylphenyl)sulfonamido)benzamide]",68%
4,"CC(=O)c1cccc(S(=O)(=O)Nc2cccc(C(=O)Nc3cccc(C(F)(F)F)c3)c2)c1 [I-319, 3-((3-acetylphenyl)sulfonamido)-N-(3-(trifluoromethyl)phenyl)benzamide]",67%
5,"Cc1cccc(NC(=O)c2cccc(NS(=O)(=O)c3ccc4c(c3)OCCO4)c2)c1C [I-320, 3-((2,3-dihydrobenzo[b][1,4]dioxine)-6-sulfonamido)-N-(2,3-dimethylphenyl)benzamide]",62%
6,"O=C(Nc1cccc(C(F)(F)F)c1)c1cccc(NS(=O)(=O)c2ccc(Cl)c(C(=O)O)c2)c1 [I-321, 2-chloro-5-(N-(3-((3-(trifluoromethyl)phenyl)carbamoyl)phenyl)sulfamoyl)benzoic acid]",57%
7,"O=C(Nc1cccc(C(F)(F)F)c1)c1cccc(NS(=O)(=O)c2ccc(Br)c(C(=O)O)c2)c1 [I-322, 2-bromo-5-(N-(3-((3-(trifluoromethyl)phenyl)carbamoyl)phenyl)sulfamoyl)benzoic acid]",47%
8,"COc1ccc(OC)c(S(=O)(=O)Nc2cccc(C(=O)Nc3cccc(C(F)(F)F)c3)c2)c1 [I-323, 3-((2,5-dimethoxyphenyl)sulfonamido)-N-(3-(trifluoromethyl)phenyl)benzamide]",42%
9,"O=C(O)CCc1ccc(S(=O)(=O)Nc2cccc(C(=O)Nc3cccc(C(F)(F)F)c3)c2)cc1 [I-324, 3-(4-(N-(3-((3-(trifluoromethyl)phenyl)carbamoyl)phenyl)sulfamoyl)phenyl)propanoic acid]",41%
10,"NC(=O)c1cc(NC(=O)c2cccc(NS(=O)(=O)c3ccc4c(c3)OCCO4)c2)ccc1Cl [I-325, N-(3-carbamoyl-4-chlorophenyl)-3-((2,3-dihydrobenzo[b][1,4]dioxine)-6-sulfonamido)benzamide]",34%
11,"O=C(Nc1cccc(C(F)(F)F)c1)c1cccc(NS(=O)(=O)c2ccccc2F)c1 [I-326, 3-((2-fluorophenyl)sulfonamido)-N-(3-(trifluoromethyl)phenyl)benzamide]",13%
12,"O=C(/C=C/c1cccc(Cl)c1)Nc1cccc(S(=O)(=O)Nc2ccc(Br)cc2)c1 [I-329, (E)-N-(3-(N-(4-bromophenyl)sulfamoyl)phenyl)-3-(3-chlorophenyl)acrylamide]",65%
13,"COc1ccc(CC(=O)Nc2cccc(S(=O)(=O)Nc3ccc(Br)cc3)c2)cc1F [I-330, N-(3-(N-(4-bromophenyl)sulfamoyl)phenyl)-2-(3-fluoro-4-methoxyphenyl)acetamide]",65%
14,"COc1ccccc1C(=O)Nc1cccc(S(=O)(=O)Nc2ccc(Br)cc2)c1 [I-331, N-(3-(N-(4-bromophenyl)sulfamoyl)phenyl)-2-methoxybenzamide]",64%
15,"N#Cc1ccc(C(=O)Nc2cccc(S(=O)(=O)Nc3ccc(Br)cc3)c2)cc1 [I-332, N-(3-(N-(4-bromophenyl)sulfamoyl)phenyl)-4-cyanobenzamide]",60%
16,"COc1ccc(C(=O)Nc2cccc(S(=O)(=O)Nc3ccc(Br)cc3)c2)cc1OC [I-333, N-(3-(N-(4-bromophenyl)sulfamoyl)phenyl)-3,4-dimethoxybenzamide]",48%
17,"C[S+]([O-])c1ccc(C(=O)Nc2cccc(S(=O)(=O)Nc3ccc(Br)cc3)c2)cc1 (stereo not drawn) [I-334, N-(3-(N-(4-bromophenyl)sulfamoyl)phenyl)-4-(methylsulfinyl)benzamide]",40%
18,"Cn1cc(C(=O)Nc2cccc(S(=O)(=O)Nc3ccc(Br)cc3)c2)cn1 [I-335, N-(3-(N-(4-bromophenyl)sulfamoyl)phenyl)-1-methyl-1H-pyrazole-4-carboxamide]",30%
19,"O=C(Nc1cccc(NS(=O)(=O)c2c(Br)cc3[nH]c(=O)oc3c2Cl)c1)c1ccc(Br)cc1 [I-337, 4-bromo-N-(3-((5-bromo-7-chloro-2-oxo-2,3-dihydrobenzo[d]oxazole)-6-sulfonamido)phenyl)benzamide]",73%
20,"COc1ccc(Br)c(C(=O)Nc2cccc(NS(=O)(=O)c3ccc(C)c(C)c3)c2)c1 [I-338, 2-bromo-N-(3-((3,4-dimethylphenyl)sulfonamido)phenyl)-5-methoxybenzamide]",69%
21,"COc1cc(C(=O)Nc2cccc(NS(=O)(=O)c3ccc(C)c(C)c3)c2)cc2c1OCCO2 [I-339, N-(3-((3,4-dimethylphenyl)sulfonamido)phenyl)-8-methoxy-2,3-dihydrobenzo[b][1,4]dioxine-6-carboxamide]",69%

row,Compound,% Inhibition of Apyrase
1,"O=C(Nc1cccc(NS(=O)(=O)c2ccc(Cl)cc2)c1)c1ccc2[nH]nnc2c1 [I-340, N-(3-((4-chlorophenyl)sulfonamido)phenyl)-1H-benzo[d][1,2,3]triazole-5-carboxamide]",65%
2,"COc1ccccc1C(=O)Nc1cccc(NS(=O)(=O)c2ccc(C)c(C)c2)c1 [I-341, N-(3-((3,4-dimethylphenyl)sulfonamido)phenyl)-2-methoxybenzamide]",64%
3,"O=C(Nc1cccc(NS(=O)(=O)c2ccc(Cl)cc2)c1)c1ccc2[nH]cnc2c1 [I-342, N-(3-((4-chlorophenyl)sulfonamido)phenyl)-1H-benzo[d]imidazole-5-carboxamide]",63%
4,"O=C(Nc1cccc(NS(=O)(=O)c2ccc(Cl)cc2)c1)c1ccc(F)cc1F [I-343, N-(3-((4-chlorophenyl)sulfonamido)phenyl)-2,4-difluorobenzamide]",59%
5,"O=C(Nc1cccc(NS(=O)(=O)c2ccc(Cl)cc2)c1)c1ccccc1 [I-344, N-(3-((4-chlorophenyl)sulfonamido)phenyl)benzamide]",56%
6,"Cc1cccc(C(=O)Nc2cccc(NS(=O)(=O)c3ccccc3)c2)c1[N+](=O)[O-] [I-345, 3-methyl-2-nitro-N-(3-(phenylsulfonamido)phenyl)benzamide]",53%
7,"Cc1ccc(S(C)(=O)=O)cc1C(=O)Nc1cccc(NS(=O)(=O)c2ccc(Cl)cc2)c1 [I-346, N-(3-((4-chlorophenyl)sulfonamido)phenyl)-2-methyl-5-(methylsulfonyl)benzamide]",53%
8,"Cc1ccc(C(=O)Nc2cccc(NS(=O)(=O)c3ccccc3)c2)cc1[N+](=O)[O-] [I-347, 4-methyl-3-nitro-N-(3-(phenylsulfonamido)phenyl)benzamide]",52%
9,"CCCOc1ccc(C(=O)Nc2cccc(NS(=O)(=O)c3ccc(C)c(C)c3)c2)cc1OC [I-348, N-(3-((3,4-dimethylphenyl)sulfonamido)phenyl)-3-methoxy-4-propoxybenzamide]",48%
10,"COc1cc(Cl)c(C)cc1NC(=O)c1ccccc1S(=O)(=O)N(C)c1ccccc1 [I-350, N-(4-chloro-2-methoxy-5-methylphenyl)-2-(N-methyl-N-phenylsulfamoyl)benzamide]",66%
11,"CN(c1ccccc1)S(=O)(=O)c1ccccc1C(=O)Nc1ccc2c(c1)OCO2 [I-351, N-(benzo[d][1,3]dioxol-5-yl)-2-(N-methyl-N-phenylsulfamoyl)benzamide]",53%
12,"C#Cc1cccc(NC(=O)c2ccccc2S(=O)(=O)N(C)c2ccccc2)c1 [I-352, N-(3-ethynylphenyl)-2-(N-methyl-N-phenylsulfamoyl)benzamide]",48%
13,"O=C(Nc1ccc(SC(F)F)cc1)c1ccccc1S(=O)(=O)N1CCCCC1 [I-353, N-(4-((difluoromethyl)thio)phenyl)-2-(piperidin-1-ylsulfonyl)benzamide]",44%
14,"O=C(Nc1ccc(OC(F)F)c(Cl)c1)c1ccccc1S(=O)(=O)N1CCCCC1 [I-354, N-(3-chloro-4-(difluoromethoxy)phenyl)-2-(piperidin-1-ylsulfonyl)benzamide]",43%
15,"CN(c1ccccc1)S(=O)(=O)c1ccccc1C(=O)Nc1ccc(Cl)cc1F [I-355, N-(4-chloro-2-fluorophenyl)-2-(N-methyl-N-phenylsulfamoyl)benzamide]",43%
16,"O=C(Nc1cccc(C(F)(F)F)c1)c1ccccc1S(=O)(=O)N1CCCCC1 [I-356, 2-(piperidin-1-ylsulfonyl)-N-(3-(trifluoromethyl)phenyl)benzamide]",10%
17,"O=C(Nc1ccc(S(=O)(=O)N2CCCC2)cc1)c1ccccc1NS(=O)(=O)c1cccc(C(F)(F)F)c1 [I-373, N-(4-(pyrrolidin-1-ylsulfonyl)phenyl)-2-((3-(trifluoromethyl)phenyl)sulfonamido) benzamide]",71%
18,"O=C(Nc1ccc(F)cc1)c1ccccc1NS(=O)(=O)c1cccc(C(F)(F)F)c1 [I-374, N-(4-fluorophenyl)-2-((3-(trifluoromethyl)phenyl)sulfonamido) benzamide]",48%
19,"O=C(c1ccccc1NS(=O)(=O)c1cccc(C(F)(F)F)c1)N1CCc2ccccc21 [I-375, N-(2-(indoline-1-carbonyl)phenyl)-3-(trifluoromethyl)benzenesulfonamide]",43%
20,"O=C(Nc1ccc(OC(F)F)cc1)c1ccccc1NS(=O)(=O)c1ccc(F)cc1 [I-376, N-(4-(difluoromethoxy)phenyl)-2-((4-fluorophenyl)sulfonamido)benzamide]",35%
21,"O=C(Nc1ccccc1)c1ccccc1NS(=O)(=O)c1cccc(C(F)(F)F)c1 [I-377, N-phenyl-2-((3-(trifluoromethyl)phenyl)sulfonamido) benzamide]",20%
